Data taken from PubChem BioAssay (NCI).
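Interpolation was linear, between the two tested concentrations surrounding the appropriate level; five concentrations were tested over 48 hours in 96-well plates. TGI denotes the concentration required for complete inhibition of growth.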

Key:
Assay in all cases: NCI anticancer screen, dose series, 48 h
XF 498 CNS = test system: XF 498 CNS
M14 melanoma = test system: M14 melanoma
HCT-15 colon = test system: HCT-15 colon
LOX IMVI melanoma = test system: LOX IMVI melanoma
NCI-H23 lung = test system: NCI-H23 lung
U251 CNS = test system: U251 CNS
OVCAR-8 ovarian = test system: OVCAR-8 ovarian
COLO 205 colon = test system: COLO 205 colon
SR leukemia = test system: SR leukemia
SNB-78 CNS = test system: SNB-78 CNS
MOLT-4 leukemia = test system: MOLT-4 leukemia
TK-10 renal = test system: TK-10 renal
OVCAR-4 ovarian = test system: OVCAR-4 ovarian
KM20L2 colon = test system: KM20L2 colon
SN12C renal = test system: SN12C renal
HOP-18 NSCLC = test system: HOP-18 NSCLC
SNB-75 CNS = test system: SNB-75 CNS
EKVX NSCLC = test system: EKVX NSCLC
RXF-631 renal = test system: RXF-631 renal
OVCAR-5 ovarian = test system: OVCAR-5 ovarian
UACC-62 melanoma = test system: UACC-62 melanoma
IGROV1 ovarian = test system: IGROV1 ovarian
HCT-116 colon = test system: HCT-116 colon
DMS 273 small cell lung = test system: DMS 273 small cell lung
M19-MEL melanoma = test system: M19-MEL melanoma
786-0 renal = test system: 786-0 renal
ACHN renal = test system: ACHN renal
UO-31 renal = test system: UO-31 renal
RXF 393 renal = test system: RXF 393 renal
HT29 colon = test system: HT29 colon
HOP-92 NSCLC = test system: HOP-92 NSCLC
HOP-62 NSCLC = test system: HOP-62 NSCLC
SK-OV-3 ovarian = test system: SK-OV-3 ovarian
A549 NSCLC = test system: A549 NSCLC
KM12 colon = test system: KM12 colon
HCC-2998 colon = test system: HCC-2998 colon
HL-60(TB) leukemia = test system: HL-60(TB) leukemia
SK-MEL-28 melanoma = test system: SK-MEL-28 melanoma
SNB-19 CNS = test system: SNB-19 CNS
DMS 114 small cell lung = test system: DMS 114 small cell lung
LXFL 529 NSCLC = test system: LXFL 529 NSCLC
SF-295 CNS = test system: SF-295 CNS
SK-MEL-5 melanoma = test system: SK-MEL-5 melanoma
SF-539 CNS = test system: SF-539 CNS
UACC-257 melanoma = test system: UACC-257 melanoma
RPMI-8226 leukemia = test system: RPMI-8226 leukemia
CCRF-CEM leukemia = test system: CCRF-CEM leukemia
MALME-3M melanoma = test system: MALME-3M melanoma
DLD-1 colon = test system: DLD-1 colon
SW-620 colon = test system: SW-620 colon
A498 renal = test system: A498 renal
K-562 leukemia = test system: K-562 leukemia
OVCAR-3 ovarian = test system: OVCAR-3 ovarian
SK-MEL-2 melanoma = test system: SK-MEL-2 melanoma
SF-268 CNS = test system: SF-268 CNS
NCI-H460 lung = test system: NCI-H460 lung
NCI-H226 lung = test system: NCI-H226 lung
CAKI-1 renal = test system: CAKI-1 renal
NCI-H522 lung = test system: NCI-H522 lung

N#CC1(Cc2ccccc2)CCCCN1C(=O)c1ccccc1 (centres undefined)
TGI (XF 498 CNS): > 100 µM
TGI (M14 melanoma): > 100 µM
TGI (HCT-15 colon): > 100 µM
TGI (LOX IMVI melanoma): > 100 µM
TGI (NCI-H23 lung): > 100 µM
TGI (U251 CNS): > 100 µM
TGI (OVCAR-8 ovarian): > 100 µM
TGI (COLO 205 colon): > 100 µM
TGI (SR leukemia): > 100 µM
TGI (SNB-78 CNS): > 100 µM
TGI (MOLT-4 leukemia): > 100 µM
TGI (TK-10 renal): > 100 µM
TGI (OVCAR-4 ovarian): > 100 µM
TGI (KM20L2 colon): > 100 µM
TGI (SN12C renal): > 100 µM
TGI (HOP-18 NSCLC): > 100 µM
TGI (SNB-75 CNS): > 100 µM
TGI (EKVX NSCLC): > 100 µM
TGI (RXF-631 renal): > 100 µM
TGI (OVCAR-5 ovarian): > 100 µM
TGI (UACC-62 melanoma): > 100 µM
TGI (IGROV1 ovarian): > 100 µM
TGI (HCT-116 colon): > 100 µM
TGI (DMS 273 small cell lung): > 100 µM
TGI (M19-MEL melanoma): > 100 µM
TGI (786-0 renal): > 100 µM
TGI (ACHN renal): > 100 µM
TGI (UO-31 renal): > 100 µM
TGI (RXF 393 renal): > 100 µM
TGI (HT29 colon): > 100 µM
TGI (HOP-92 NSCLC): > 100 µM
TGI (HOP-62 NSCLC): > 100 µM
TGI (SK-OV-3 ovarian): > 100 µM
TGI (A549 NSCLC): > 100 µM
TGI (KM12 colon): > 100 µM
TGI (HCC-2998 colon): > 100 µM
TGI (HL-60(TB) leukemia): > 100 µM
TGI (SK-MEL-28 melanoma): > 100 µM
TGI (SNB-19 CNS): > 100 µM
TGI (DMS 114 small cell lung): > 100 µM
TGI (LXFL 529 NSCLC): > 100 µM
TGI (SF-295 CNS): > 100 µM
TGI (SK-MEL-5 melanoma): > 100 µM
TGI (SF-539 CNS): > 100 µM
TGI (UACC-257 melanoma): > 100 µM
TGI (RPMI-8226 leukemia): > 100 µM
TGI (CCRF-CEM leukemia): > 100 µM
TGI (MALME-3M melanoma): > 100 µM
TGI (DLD-1 colon): > 100 µM
TGI (SW-620 colon): > 100 µM
TGI (A498 renal): > 100 µM
TGI (K-562 leukemia): > 100 µM
TGI (OVCAR-3 ovarian): > 100 µM
TGI (SK-MEL-2 melanoma): 9.11 µM
TGI (SF-268 CNS): > 100 µM
TGI (NCI-H460 lung): > 100 µM

COC(=O)C1CC(C(=O)OC)c2nc3cc([N+](=O)[O-])ccc3nc21 (centres undefined)
TGI (XF 498 CNS): > 100 µM
TGI (M14 melanoma): > 100 µM
TGI (HCT-15 colon): > 100 µM
TGI (LOX IMVI melanoma): > 31.6 µM
TGI (NCI-H23 lung): > 100 µM
TGI (U251 CNS): > 100 µM
TGI (OVCAR-8 ovarian): > 100 µM
TGI (NCI-H226 lung): > 100 µM
TGI (COLO 205 colon): > 100 µM
TGI (SNB-78 CNS): > 100 µM
TGI (MOLT-4 leukemia): > 100 µM
TGI (CAKI-1 renal): > 100 µM
TGI (TK-10 renal): > 100 µM
TGI (OVCAR-4 ovarian): > 100 µM
TGI (KM20L2 colon): > 100 µM
TGI (SN12C renal): > 100 µM
TGI (HOP-18 NSCLC): > 100 µM
TGI (SNB-75 CNS): > 100 µM
TGI (EKVX NSCLC): > 100 µM
TGI (RXF-631 renal): > 100 µM
TGI (OVCAR-5 ovarian): > 100 µM
TGI (UACC-62 melanoma): > 100 µM
TGI (IGROV1 ovarian): > 100 µM
TGI (HCT-116 colon): > 100 µM
TGI (DMS 273 small cell lung): > 100 µM
TGI (M19-MEL melanoma): > 100 µM
TGI (786-0 renal): > 100 µM
TGI (ACHN renal): > 100 µM
TGI (UO-31 renal): 98.9 µM
TGI (RXF 393 renal): > 100 µM
TGI (HT29 colon): > 100 µM
TGI (HOP-92 NSCLC): > 100 µM
TGI (HOP-62 NSCLC): > 100 µM
TGI (SK-OV-3 ovarian): > 100 µM
TGI (A549 NSCLC): > 100 µM
TGI (KM12 colon): > 100 µM
TGI (HCC-2998 colon): > 59.1 µM
TGI (HL-60(TB) leukemia): > 86.8 µM
TGI (SK-MEL-28 melanoma): > 100 µM
TGI (SNB-19 CNS): > 100 µM
TGI (DMS 114 small cell lung): > 100 µM
TGI (LXFL 529 NSCLC): > 100 µM
TGI (SF-295 CNS): > 100 µM
TGI (SK-MEL-5 melanoma): > 100 µM
TGI (SF-539 CNS): > 100 µM
TGI (UACC-257 melanoma): > 100 µM
TGI (NCI-H522 lung): > 64.7 µM
TGI (RPMI-8226 leukemia): > 100 µM
TGI (CCRF-CEM leukemia): > 100 µM
TGI (MALME-3M melanoma): > 100 µM
TGI (DLD-1 colon): > 100 µM
TGI (SW-620 colon): > 100 µM
TGI (A498 renal): > 100 µM
TGI (K-562 leukemia): > 100 µM
TGI (OVCAR-3 ovarian): > 100 µM
TGI (SK-MEL-2 melanoma): > 100 µM
TGI (SF-268 CNS): > 100 µM
TGI (NCI-H460 lung): > 100 µM
